According to US20180305332A1, “Bispiperidinyl Derivatives as Liver X Receptor Beta Agonists, Compositions, and Their Use” (Merck Sharp & Dohme Corp., priority 2015, published 2018):

Experiments:
[1] = target: T1, GST tagged LXRbeta LBD (ligand binding domain) (Homo sapiens, UniProt P55055); test: LanthaScreen TR-FRET Liver X Receptor Coactivator Assay, LXR beta-LBD; format: biochemical; settings: relative to reference T0901317; for EC50: Inflection Point (potency), co-activator recruitment, read-out: LXR beta IP; for Emax: activity at max dose (efficacy), read-out: LXR beta act @ max dose (%)
T1 construct: purchased Invitrogen pv4658.pps
T1 sequence (P55055 222-460 limits assumed): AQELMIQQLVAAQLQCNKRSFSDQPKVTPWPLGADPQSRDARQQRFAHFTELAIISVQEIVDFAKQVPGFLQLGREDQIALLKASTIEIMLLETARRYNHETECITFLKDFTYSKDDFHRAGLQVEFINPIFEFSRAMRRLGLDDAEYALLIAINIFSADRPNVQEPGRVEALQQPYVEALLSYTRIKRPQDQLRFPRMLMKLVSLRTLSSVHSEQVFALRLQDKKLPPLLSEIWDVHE
Protocol: (§1) Potency (Inflection Point, IP) and efficacy (Emax) are evaluated via compound-induced co-activator recruitment to glutathione-S-transferase (GST) tagged LXRbeta and LXRalpha LBD (ligand binding domain) proteins in relation to reference dual agonist compound T0901317 (N-(2,2,2-Trifluoroethyl)-N-[4-[2,2,2-trifluoro-1-hydroxy-1-(trifluoromethyl)ethyl] phenyl]benzenesulfonamide) using the LanthaScreen™ TR-FRET Liver X Receptor Coactivator Assays according to manufacturer's instructions (Invitrogen catalog number pv4658.pps and pv4655). While running the LanthaScreen™ TR-FRET Liver X Receptor Coactivator Assay, LXR alpha-LBD or LXR beta-LBD was added to ligand test compounds followed by addition of a mixture of a fluorescein-labelled coactivator peptide and terbium-conjugated anti-GST antibody. After an incubation period at room temperature, TR-FRET (time-resolved fluorescence resonance energy transfer) was measured using a filter-based instrument capable of TR-FRET, e.g. PerkinElmer Envision.

[2] = target: T2, GST tagged LXRalpha LBD (ligand binding domain) (Homo sapiens, UniProt Q13133); test: LanthaScreen TR-FRET Liver X Receptor Coactivator Assay, LXR alpha-LBD; format: biochemical; settings: relative to reference T0901317; for EC50: Inflection Point (potency), co-activator recruitment, read-out: LXR alpha IP; for Emax: activity at max dose (efficacy), read-out: LXR alpha act @ max dose (%)
T2 construct: purchased Invitrogen pv4655
T2 sequence (Q13133 209-447 limits assumed): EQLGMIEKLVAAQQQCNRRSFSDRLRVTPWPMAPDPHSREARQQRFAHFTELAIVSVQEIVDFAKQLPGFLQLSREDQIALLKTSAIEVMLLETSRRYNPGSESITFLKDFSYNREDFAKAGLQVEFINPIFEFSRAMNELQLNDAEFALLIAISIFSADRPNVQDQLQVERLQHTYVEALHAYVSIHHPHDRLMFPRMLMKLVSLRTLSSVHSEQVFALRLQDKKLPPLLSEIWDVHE
Protocol: as §1

Row | Compound | EC50 [1] [nM] | Emax [1] [%] | EC50 [2] [nM] | Emax [2] [%]
1 | CN(C)C(=O)c1ccc(N2CCC(C3CCN(C(=O)C(C)(C)c4ccccc4)CC3)CC2)cc1Cl [Example A-12, 2-chloro-N,N-dimethyl-4-[1′-(2-methyl-2-phenylpropanoyl)-4,4′-bipiperidin-1-yl]benzamide] | 14 | 114 | 2460 | 47
2 | CN(C)C(=O)c1ccc(N2CCC(C3CCN(C(=O)[C@](O)(c4ccccc4)C(F)(F)F)CC3)CC2)cc1Cl [Example A-13, 2-chloro-N,N-dimethyl-4-{1′-[(2R)-3,3,3-trifluoro-2-hydroxy-2-phenylpropanoyl]-4,4′-bipiperidin-1-yl}benzamide] | 52 | 106 | 1510 | 19
3 | CN(C)C(=O)c1ccc(N2CCC(C3CCN(C(=O)C45CC(C4)C5)CC3)CC2)cc1Cl [Example A-15, 4-[1′-(bicyclo[1.1.1]pent-1-ylcarbonyl)-4,4′-bipiperidin-1-yl]-2-chloro-N,N-dimethylbenzamide] | 314 | 93 | 3130 | 31
4 | CN(C)C(=O)c1ccc(N2CCC(C3CCN(C(=O)C(C)(c4ccccc4)C(F)(F)F)CC3)CC2)cc1Cl (stereo not shown) [Example A-16, 2-chloro-N,N-dimethyl-4-[1′-(3,3,3-trifluoro-2-methyl-2-phenylpropanoyl)-4,4′-bipiperidin-1-yl]benzamide] | 14 | 109 | 861 | 33
5 | CN(C)C(=O)c1ccc(N2CCC(C3CCN(C(=O)C4(c5cccc(F)c5)CCC4)CC3)CC2)cc1Cl [Example A-17, 2-chloro-4-(1′-{[1-(3-fluorophenyl)cyclobutyl]carbonyl}-4,4′-bipiperidin-1-yl)-N,N-dimethylbenzamide] | 204 | 100 | 2260 | 14
6 | CN(C)C(=O)c1ccc(N2CCC(C3CCN(C(=O)c4ccccc4Cl)CC3)CC2)cc1Cl [Example A-22, 2-chloro-4-{1′-[(2-chlorophenyl)carbonyl]-4,4′-bipiperidin-1-yl}-N,N-dimethylbenzamide] | 52 | 58 | 1 | 3
7 | CN(C)C(=O)c1ccc(N2CCC(C3CCN(C(=O)c4c(F)cccc4F)CC3)CC2)cc1Cl [Example A-23, 2-chloro-4-{1′-[(2,6-difluorophenyl)carbonyl]-4,4′-bipiperidin-1-yl}-N,N-dimethylbenzamide] | 79 | 92 | 2980 | 23
8 | CN(C)C(=O)c1ccc(N2CCC(C3CCN(C(=O)c4c(F)cccc4Cl)CC3)CC2)cc1Cl [Example A-24, 2-chloro-4-{1′-[(2-chloro-6-fluorophenyl)carbonyl]-4,4′-bipiperidin-1-yl}-N,N-dimethylbenzamide] | 89 | 107 | 4850 | 31
9 | CN(C)C(=O)c1ccc(N2CCC(C3CCN(C(=O)c4c(F)cccc4C(F)(F)F)CC3)CC2)cc1Cl [Example A-25, 2-chloro-4-(1′-{[2-fluoro-6-(trifluoromethyl)phenyl]carbonyl}-4,4′-bipiperidin-1-yl)-N,N-dimethylbenzamide] | 113 | 109 | 3540 | 54
10 | CN(C)C(=O)c1ccc(N2CCC(C3CCN(C(=O)C4(C(F)(F)F)CCCCC4)CC3)CC2)cc1Cl [Example A-27, 2-chloro-N,N-dimethyl-4-(1′-{[1-(trifluoromethyl)cyclohexyl]carbonyl}-4,4′-bipiperidin-1-yl)benzamide] | 26 | 119 | 300 | 70
11 | CN(C)C(=O)c1ccc(N2CCC(C3CCN(C(=O)C4(C(F)(F)F)CCC4)CC3)CC2)cc1Cl [Example A-29, 2-chloro-N,N-dimethyl-4-(1′-{[1-(trifluoromethyl)cyclobutyl]carbonyl}-4,4′-bipiperidin-1-yl)benzamide] | 526 | 106 | 3580 | 46
12 | CN(C)C(=O)c1c(Cl)cc(N2CCC(C3CCN(C(=O)c4c(F)cccc4F)CC3)CC2)cc1Cl [Example A-32, 2,6-dichloro-4-{1′-[(2,6-difluorophenyl)carbonyl]-4,4′-bipiperidin-1-yl}-N,N-dimethylbenzamide] | 101 | 88 | 748 | 24
13 | CN(C)C(=O)c1c(Cl)cc(N2CCC(C3CCN(C(=O)[C@](O)(c4ccccc4)C(F)(F)F)CC3)CC2)cc1Cl [Example A-33, 2,6-dichloro-N,N-dimethyl-4-{1′-[(2R)-3,3,3-trifluoro-2-hydroxy-2-phenylpropanoyl]-4,4′-bipiperidin-1-yl}benzamide] | 48 | 86 | 483 | 25
14 | CC(C)C(O)(C(=O)N1CCC(C2CCN(c3cc(Cl)c(C(=O)N(C)C)c(Cl)c3)CC2)CC1)C(F)(F)F (stereo not shown) [Example A-34, 2,6-dichloro-4-{1′-[2-hydroxy-3-methyl-2-(trifluoromethyl)butanoyl]-4,4′-bipiperidin-1-yl}-N,N-dimethylbenzamide] | 119 | 103 | 1350 | 46

Further molecules by falling EC50 [1], results first:

Row | EC50 [1] [nM] | Emax [1] [%] | EC50 [2] [nM] | Emax [2] [%] | Compound
15 | 243 | 95 | 3000 | 37 | CN(C)C(=O)c1ccc(N2CCC(C3CCN(C(=O)c4ccccc4C(F)(F)F)CC3)CC2)cc1Cl [Example A-21, 2-chloro-N,N-dimethyl-4-(1′-{[2-(trifluoromethyl)phenyl]carbonyl}-4,4′-bipiperidin-1-yl)benzamide]
16 | 207 | 81 | 4200 | 15 | CN(C)C(=O)c1ccc(N2CCC(C3CCN(C(=O)C4(c5ccc(F)cc5)CCC4)CC3)CC2)cc1Cl [Example A-18, 2-chloro-4-(1′-{[1-(4-fluorophenyl)cyclobutyl]carbonyl}-4,4′-bipiperidin-1-yl)-N,N-dimethylbenzamide]
17 | 173 | 123 | 2470 | 73 | CN(C)C(=O)c1ccc(N2CCC(C3CCN(C(=O)C4(C(F)(F)F)CCCC4)CC3)CC2)cc1Cl [Example A-28, 2-chloro-N,N-dimethyl-4-(1′-{[1-(trifluoromethyl)cyclopentyl]carbonyl}-4,4′-bipiperidin-1-yl)benzamide]
18 | 124 | 94 | 1750 | 17 | Cc1cccc(C2(C(=O)N3CCC(C4CCN(c5ccc(C(=O)N(C)C)c(Cl)c5)CC4)CC3)CCC2)c1 [Example A-19, 2-chloro-N,N-dimethyl-4-(1′-{[1-(3-methylphenyl)cyclobutyl]carbonyl}-4,4′-bipiperidin-1-yl)benzamide]
19 | 112 | 103 | 967 | 45 | CC(C)C(O)(C(=O)N1CCC(C2CCN(c3ccc(C(=O)N(C)C)c(Cl)c3)CC2)CC1)C(F)(F)C(F)(F)F (stereo not shown) [Example A-26, 2-chloro-N,N-dimethyl-4-{1′-[3,3,4,4,4-pentafluoro-2-hydroxy-2-(1-methylethyl)butanoyl]-4,4′-bipiperidin-1-yl}benzamide]
20 | 73 | 119 | 2120 | 62 | CN(C)C(=O)c1ccc(N2CCC(C3CCN(C(=O)C(O)(C(F)(F)F)C4(C)CC4)CC3)CC2)cc1Cl (stereo not shown) [Example A-30, 2-chloro-N,N-dimethyl-4-{1′-[3,3,3-trifluoro-2-hydroxy-2-(1-methylcyclopropyl)propanoyl]-4,4′-bipiperidin-1-yl}benzamide]
21 | 61 | 86 | 362 | 27 | C=C(C)C(O)(C(=O)N1CCC(C2CCN(c3ccc(C(=O)N(C)C)c(Cl)c3)CC2)CC1)C(F)(F)F (stereo not shown) [Example A-31, 2-chloro-4-{1′-[2-hydroxy-3-methyl-2-(trifluoromethyl)but-3-enoyl]-4,4′-bipiperidin-1-yl}-N,N-dimethylbenzamide]
22 | 36 | 114 | 1530 | 38 | CN(C)C(=O)c1ccc(N2CCC(C3CCN(C(=O)C4(c5ccccc5)CCC4)CC3)CC2)cc1Cl [Example A-14, 2-chloro-N,N-dimethyl-4-{1′-[(1-phenylcyclobutyl)carbonyl]-4,4′-bipiperidin-1-yl}benzamide]
